Test results from ChEMBL document CHEMBL2074014, “Role of blood-brain barrier organic anion transporter 3 (OAT3) in the efflux of indoxyl sulfate, a uremic toxin: its involvement in neurotransmitter metabolite clearance from the brain” (J Neurochem, 2002).

Key:
[1] = molecular target: T1, Organic anion transporter 3 (OAT3) (Rattus norvegicus, UniProt Q9R1U7); assay: TP_TRANSPORTER: inhibition of Indoxyl sulfate uptake (Indoxyl sulfate: 2 uM, 5-Methoxytryptophol: 1000 uM) in Xenopus laevis oocytes; assay type: functional, cell-based, Oocyte; design: scale not given: the % may be the effect or the level left; conditions: probe Indoxyl sulfate, read-out: Activity
T1 sequence (Q9R1U7 whole entry): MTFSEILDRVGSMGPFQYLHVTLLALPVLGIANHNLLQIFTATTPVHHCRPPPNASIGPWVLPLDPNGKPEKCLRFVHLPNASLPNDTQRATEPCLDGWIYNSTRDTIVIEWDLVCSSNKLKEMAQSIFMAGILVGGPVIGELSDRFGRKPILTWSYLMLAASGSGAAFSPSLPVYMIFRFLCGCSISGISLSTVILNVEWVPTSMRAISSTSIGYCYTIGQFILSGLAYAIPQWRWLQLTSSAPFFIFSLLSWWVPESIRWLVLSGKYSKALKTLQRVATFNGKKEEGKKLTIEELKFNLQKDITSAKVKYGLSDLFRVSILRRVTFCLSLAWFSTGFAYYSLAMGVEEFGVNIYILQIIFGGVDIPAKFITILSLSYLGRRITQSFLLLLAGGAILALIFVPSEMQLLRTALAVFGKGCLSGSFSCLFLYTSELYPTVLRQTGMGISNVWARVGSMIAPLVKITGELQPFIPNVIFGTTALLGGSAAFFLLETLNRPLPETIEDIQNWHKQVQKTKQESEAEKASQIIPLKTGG

[2] = molecular target: T1, Organic anion transporter 3 (OAT3); assay: TP_TRANSPORTER: inhibition of Indoxyl sulfate uptake (Indoxyl sulfate: 2 uM, 3-Methoxy-4-hydroxymandelic acid: 1000 uM) in Xenopus laevis oocytes; assay type: functional, cell-based, Oocyte; design: scale not given: the % may be the effect or the level left; conditions: probe Indoxyl sulfate, read-out: Activity
[3] = molecular target: T1, Organic anion transporter 3 (OAT3); assay: TP_TRANSPORTER: inhibition of Indoxyl sulfate uptake (Indoxyl sulfate: 2 uM, 3,4-Dihydroxymandelic acid: 1000 uM) in Xenopus laevis oocytes; assay type: functional, cell-based, Oocyte; design: scale not given: the % may be the effect or the level left; conditions: probe Indoxyl sulfate, read-out: Activity
[4] = molecular target: T1, Organic anion transporter 3 (OAT3); assay: TP_TRANSPORTER: inhibition of Indoxyl sulfate uptake (Indoxyl sulfate: 2 uM, 5-Hydroxyindole acetic acid: 1000 uM) in Xenopus laevis oocytes; assay type: functional, cell-based, Oocyte; design: scale not given: the % may be the effect or the level left; conditions: probe Indoxyl sulfate, read-out: Activity
[5] = molecular target: T1, Organic anion transporter 3 (OAT3); assay: TP_TRANSPORTER: inhibition of Indoxyl sulfate uptake (Indoxyl sulfate: 2 uM, 3,4-Dihydroxyphenylacetic acid: 1000 uM) in Xenopus laevis oocytes; assay type: functional, cell-based, Oocyte; design: scale not given: the % may be the effect or the level left; conditions: probe Indoxyl sulfate, read-out: Activity
[6] = molecular target: T1, Organic anion transporter 3 (OAT3); assay: TP_TRANSPORTER: inhibition of Indoxyl sulfate uptake (Indoxyl sulfate: 2 uM, ACV: 1000 uM) in Xenopus laevis oocytes; assay type: functional, cell-based, Oocyte; design: scale not given: the % may be the effect or the level left; conditions: probe Indoxyl sulfate, read-out: Activity
[7] = molecular target: T1, Organic anion transporter 3 (OAT3); assay: TP_TRANSPORTER: inhibition of Indoxyl sulfate uptake (Indoxyl sulfate: 2 uM, Baclofen: 1000 uM) in Xenopus laevis oocytes; assay type: functional, cell-based, Oocyte; design: scale not given: the % may be the effect or the level left; conditions: probe Indoxyl sulfate, read-out: Activity
[8] = molecular target: T1, Organic anion transporter 3 (OAT3); assay: TP_TRANSPORTER: inhibition of Indoxyl sulfate uptake (Indoxyl sulfate: 2 uM, Benzoic acid: 1000 uM) in Xenopus laevis oocytes; assay type: functional, cell-based, Oocyte; design: scale not given: the % may be the effect or the level left; conditions: probe Indoxyl sulfate, read-out: Activity
[9] = molecular target: T1, Organic anion transporter 3 (OAT3); assay: TP_TRANSPORTER: inhibition of Indoxyl sulfate uptake (Indoxyl sulfate: 2 uM, Cefazolin: 1000 uM) in Xenopus laevis oocytes; assay type: functional, cell-based, Oocyte; design: scale not given: the % may be the effect or the level left; conditions: probe Indoxyl sulfate, read-out: Activity
[10] = molecular target: T1, Organic anion transporter 3 (OAT3); assay: TP_TRANSPORTER: inhibition of Indoxyl sulfate uptake (Indoxyl sulfate: 2 uM, HVA: 1000 uM) in Xenopus laevis oocytes; assay type: functional, cell-based, Oocyte; design: scale not given: the % may be the effect or the level left; conditions: probe Indoxyl sulfate, read-out: Activity
[11] = molecular target: T1, Organic anion transporter 3 (OAT3); assay: TP_TRANSPORTER: inhibition of Indoxyl sulfate uptake (Indoxyl sulfate: 2 uM, Imidazoleacetic acid: 1000 uM) in Xenopus laevis oocytes; assay type: functional, cell-based, Oocyte; design: scale not given: the % may be the effect or the level left; conditions: probe Indoxyl sulfate, read-out: Activity
[12] = molecular target: T2, Organic anion transporter 3 (Rattus norvegicus, UniProt Q9R1U7); assay: TP_TRANSPORTER: inhibition of Indoxyl sulfate uptake (Indoxyl sulfate: 2 uM, Ketoprofen: 1000 uM) in Xenopus laevis oocytes; assay type: functional, cell-based; design: scale not given: the % may be the effect or the level left; conditions: oocyte
T2 sequence (Q9R1U7 whole entry): T1 sequence (Q9R1U7 whole entry)

[13] = molecular target: T1, Organic anion transporter 3 (OAT3); assay: TP_TRANSPORTER: inhibition of Indoxyl sulfate uptake (Indoxyl sulfate: 2 uM, Melatonin: 1000 uM) in Xenopus laevis oocytes; assay type: functional, cell-based, Oocyte; design: scale not given: the % may be the effect or the level left; conditions: probe Indoxyl sulfate, read-out: Activity
[14] = molecular target: T1, Organic anion transporter 3 (OAT3); assay: TP_TRANSPORTER: inhibition of Indoxyl sulfate uptake (Indoxyl sulfate: 2 uM, 6-mercaptopurine: 1000 uM) in Xenopus laevis oocytes; assay type: functional, cell-based, Oocyte; design: scale not given: the % may be the effect or the level left; conditions: probe Indoxyl sulfate, read-out: Activity
[15] = molecular target: T2, Organic anion transporter 3; assay: TP_TRANSPORTER: inhibition of Indoxyl sulfate uptake (Indoxyl sulfate: 2 uM, Valproic acid: 1000 uM) in Xenopus laevis oocytes; assay type: functional, cell-based; conditions: oocyte

COc1ccc2[nH]cc(CCO)c2c1
activity at 1000 µM [1]: 26.8%

COc1cc([C@@H](O)C(=O)O)ccc1O
activity at 1000 µM [2]: 27.3%

O=C(O)[C@H](O)c1ccc(O)c(O)c1
activity at 1000 µM [3]: 33.5%

O=C(O)Cc1c[nH]c2ccc(O)cc12
activity at 1000 µM [4]: 18.7%

O=C(O)Cc1ccc(O)c(O)c1 [3,4-DIHYDROXYPHENYLACETIC ACID]
activity at 1000 µM [5]: 8.86%

Nc1nc2c(ncn2COCCO)c(=O)[nH]1 [ACYCLOVIR]
activity at 1000 µM [6]: 7.66%

NCC(CC(=O)O)c1ccc(Cl)cc1 (stereo not given) [BACLOFEN]
activity at 1000 µM [7]: 25.7%

O=C(O)c1ccccc1 [BENZOIC ACID]
activity at 1000 µM [8]: 71.6%

Cc1nnc(SCC2=C(C(=O)O)N3C(=O)[C@@H](NC(=O)Cn4cnnn4)[C@H]3SC2)s1 [CEFAZOLIN]
activity at 1000 µM [9]: 13.6%

COc1cc(CC(=O)O)ccc1O [HOMOVANILLIC ACID]
activity at 1000 µM [10]: 29.9%

O=C(O)Cc1ncc[nH]1 [IMIDAZOLEACETIC ACID]
activity at 1000 µM [11]: 69.4%

CC(C(=O)O)c1cccc(C(=O)c2ccccc2)c1 (stereo not given) [KETOPROFEN]
Activity [12]: 22.3%

COc1ccc2[nH]cc(CCNC(C)=O)c2c1 [MELATONIN]
activity at 1000 µM [13]: 30.9%

Sc1ncnc2nc[nH]c12 [MERCAPTOPURINE ANHYDROUS]
activity at 1000 µM [14]: 19.1%

CCCC(CCC)C(=O)O [VALPROIC ACID]
Activity [15]: is not an inhibitor [-]
